We go through ten molecules from patent US5071857A, “2,6-dioxopiperidine derivatives, their preparation and pharmaceutical compositions containing them” (National Research Development Corporation, priority 1983, dated 1991).

Read-outs that look alike come from different tables or passages of the source.

For one series, the target named is T1, aromatase (Homo sapiens, UniProt P11511).
T1 construct: Aromatase was obtained from the microsomal fraction of human placental tissue; from tissue; host or cells: human placenta, microsomal fraction
T1 sequence (P11511 1-503): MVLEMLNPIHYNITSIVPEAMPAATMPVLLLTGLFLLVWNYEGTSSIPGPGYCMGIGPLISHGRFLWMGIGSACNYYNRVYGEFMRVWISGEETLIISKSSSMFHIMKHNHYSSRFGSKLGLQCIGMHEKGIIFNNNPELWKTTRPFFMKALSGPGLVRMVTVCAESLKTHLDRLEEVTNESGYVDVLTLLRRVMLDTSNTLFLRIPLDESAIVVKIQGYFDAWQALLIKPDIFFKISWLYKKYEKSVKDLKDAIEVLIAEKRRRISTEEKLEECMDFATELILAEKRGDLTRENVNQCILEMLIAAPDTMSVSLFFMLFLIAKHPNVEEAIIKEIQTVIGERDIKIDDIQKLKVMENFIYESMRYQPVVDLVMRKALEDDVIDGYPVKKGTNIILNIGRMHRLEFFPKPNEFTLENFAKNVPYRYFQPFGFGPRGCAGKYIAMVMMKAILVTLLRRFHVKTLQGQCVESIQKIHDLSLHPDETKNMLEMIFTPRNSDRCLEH
The series can be described thus: Inhibition of aromatase (microsomal fraction of human placental tissue, 3H2O release from (1,2-3H) testosterone). The series is classed as biochemical.

For the next series, the target named is T2, desmolase (Bos taurus, UniProt P00189).
T2 construct: The mitochondrial fraction of bovine adrenal cortex provided the source of desmolase; from tissue; host or cells: bovine adrenal cortex, mitochondrial fraction
T2 sequence (P00189 40-520): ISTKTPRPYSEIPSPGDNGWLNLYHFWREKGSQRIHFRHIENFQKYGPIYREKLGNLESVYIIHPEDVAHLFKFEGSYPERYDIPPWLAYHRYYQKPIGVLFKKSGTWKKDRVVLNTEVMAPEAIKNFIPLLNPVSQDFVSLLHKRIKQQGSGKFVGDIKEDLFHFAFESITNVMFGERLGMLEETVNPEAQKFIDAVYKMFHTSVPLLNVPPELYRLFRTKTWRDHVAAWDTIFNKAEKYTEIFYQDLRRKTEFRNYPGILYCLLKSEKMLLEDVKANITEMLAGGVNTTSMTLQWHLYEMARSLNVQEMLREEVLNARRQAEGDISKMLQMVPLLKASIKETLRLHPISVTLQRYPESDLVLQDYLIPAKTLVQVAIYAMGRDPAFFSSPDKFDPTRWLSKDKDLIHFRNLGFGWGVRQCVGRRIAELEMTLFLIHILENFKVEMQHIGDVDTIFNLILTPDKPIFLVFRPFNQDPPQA
The series can be described thus: Inhibition of desmolase (mitochondrial fraction of bovine adrenal cortex, 14C-isocaproic acid release from (26-14C)-cholesterol). It is filed as biochemical. The following applies: for IC50 Desmolase: 7 micromolar (14C) cholesterol.

For series [1] the following is noted: prior art; cited from earlier work.
Series [2] relates to Rat mammary tumours induced with MNU (N-methyl-N-nitrosourea). Briefly: Tests in vivo on tumour regression, MNU-induced rat mammary tumours. Set-up: species or system rat (Ludwig Wistar/Ola, WF/ICRF/Ola, female). Here is the method: Unlike DMBA (7,12-dimethylbenz[a]anthracene) induced tumours, MNU tumours may be primarily oestrogen-, rather than prolactin-dependent, see Pruitt, Rose and Bryan, Proc. Ann. Cancer Res. 20, 87, (1979).
Using the method of Williams et al., supra, mammary tumours were induced in virgin female rats of the inbred strain Ludwig Wistar/Ola (WF/ICRF/Ola) by intravenous administration of MNU. MNU was dissolved in 0.9% aqueous sodium chloride solution acidified to pH 5 with acetic acid. Starting at age 50 days, each rat received 3 injections at 14 day intervals via the tail vein (5 mg MNU/100 g body weight/injection; injection volume of 0.5 ml/rat). Animals were assigned to experimental groups at 125-140 days after the first injection, with 12 animals in each group. At this time they bore from 1-3 tumours per animal.
Controls received equivalent injections of DMSO alone.
Results were expressed in terms of the percentage of initial tumour volume for each tumour after 42 day, treatment.

A short description of series [3]: Stability of injection solutions at pH 3.5-4. The following applies: 50 mg. It is filed as physicochemical. Here is the method:
This went into solution at low pH very nicely. M NaOH was added to pH 3.5-4. The volume was made up using deionized water.

Series [4] concerns central nervous system. Briefly: Behavioral observations (Irwin observational assessment). The following applies: for Passivity: rating 0-4, 20-30 minutes after injection.
Series [5] deals with central nervous system. The series can be described thus: Rotating rod experiments (rotarod test), drug-induced ataxia. (In general: In the rotarod test animals must keep their balance on a rotating rod.)
Series [6] has as its system central nervous system. Briefly: Studies on anticonvulsant properties, pentylenetetrazol-induced convulsions.
[7] abbreviates: 1.5 micromolar (3H) testosterone.
Where [8] appears, read: after 6 weeks (42 days), 0.165 millimoles/kg/day s.c.
Where [9] appears, read: compared with aminoglutethimide.

Usually IC50 stands for the point on the concentration scale where inhibition reaches its midpoint.

Method for aromatase: (§1) The activity of various glutarimides against the enzymes aromatase and desmolase was assayed as follows. Each compound was examined over a range of concentrations. At each concentration of inhibitor, samples were removed at three time points. The results were plotted on a graph of product released against time of incubation. The resulting linear graph was used to determine the rate of enzyme reaction at each concentration of inhibitor.
(§2) A. Desmolase The mitochondrial fraction of bovine adrenal cortex provided the source of desmolase and the method of isolation was essentially as published by R. B. Hochberg et al., Biochemistry, 13, 603 (1974). The enzyme activity was assayed using (26-^14 C)-cholesterol as substrate and measuring the ^14 C-isocaproic acid released, see R. B. Hochberg et al., supra. and V. I. Uzgiris et al., Endocrinology, 101, 89 (1977). Inhibitor compounds were added in ethanol (microliters) and an equal volume of ethanol was added to the control assay. The total volume of the assay mixture was 1.0 ml. After preincubating the assay tubes at 30° C. for 5 minutes, the reaction was started by the addition of 1 mg of mitochondrial protein. Samples were removed after 2,4 and 6 minutes of incubation and the assay completed as described.
Method for desmolase: as §1, §2

As to `CCC1(c2cccnc2)CCC(=O)NC1=O` (stereo not drawn), the “IC50 Aromatase” value on aromatase (setting [7]) is “None”. Moreover, the “IC50 Desmolase” value against desmolase is recorded as “None”.

Take `CCC1(c2ccccn2)CCC(=O)NC1=O` (stereo not drawn) [3-ethyl-3-(2-pyridyl)-glutarimide]: in series [1], the “sedative, hypnotic or anti-convulsive effect” value was “sedative and hypnotic effect”.

On to `CCC1(c2ccncc2)CCC(=O)NC1=O` (stereo not drawn) [3-ethyl-3-(4-pyridyl)glutarimide, 3-ethyl-3-(4-pyridyl)-2,6-piperidinedione], for which, on desmolase, the “Desmolase inhibition (in words)” value is on record as “inhibits aromatase but not desmolase” and the “IC50 Desmolase” value was “None”. Besides, the “percentage of tumours which regress (in words)” value in series [2] (42 days, 0.165 millimoles/kg/day s.c.) was “shows a similar effect”. Further, in series [2] (setting [8]), the “No. tumours grown by more than 100%” value is 8 tumours, the “No. tumours grown by up to 100%” value was determined as 6 tumours, the “No. tumours regressed but by less than 50%” value is on record as 3 tumours and the “No. tumours regressed by 50% or more” value turned out to be 9 tumours. The “No. tumours with no change” value in series [2] (setting [8]) turned out to be 1 tumours. The “inhibition of tumour growth (in words)” value in series [2] (setting [9]) is on record as “at least as effective an inhibitor of tumour growth in this assay as aminoglutethimide”. In addition, the “time within which salt came out of solution” value in series [3] was at most 15 min. Further, in the series on central nervous system [4] (200 mg/kg i.p.), the Abnormal gait result was “-”, the Corneal reflex entry is “+”, the Flexor reflex entry is “+” and the Grooming entry is on record as “-”. In the series on central nervous system [4] (200 mg/kg i.p.), the Motor activity result is “N”, the Righting reflex entry is reported as “+”, the Tremors result was “-” and the Twitches entry is reported as “-”. For the same molecule, in the series with central nervous system [4] (200 mg/kg i.p.), the “observable differences from control mice (in words)” value is given as “no grossly observable differences from the control mice” and the Passivity is reported as 0. For the same molecule, in the series on central nervous system [4] (300 mg/kg i.p.), the Abnormal gait result is “-”, the Corneal reflex result is “+”, the Flexor reflex result was “+” and the Grooming entry was “+”. In the series with central nervous system [4] (300 mg/kg i.p.), the Motor activity result is “N”, the Righting reflex entry is “+”, the Tremors result is recorded as “-” and the Twitches entry was “-”. Besides, in the series on central nervous system [4] (300 mg/kg i.p.), the “spontaneous motor activity and struggle response (in words)” value is “some mice showed slight reduction in spontaneous motor activity and diminished struggle response”. In the series with central nervous system [4] (400 mg/kg i.p.), the Corneal reflex entry is given as “+”, the Flexor reflex entry is “+”, the Grooming result is listed as “+” and the Motor activity result is “Dec”. For the same molecule, in the series on central nervous system [4] (400 mg/kg i.p.), the Righting reflex entry was “+”; the Tremors entry is “-”; the Twitches entry is listed as “-”; the “activity, passivity and hindlimb control (in words)” value was “all mice were noticeably less active, more passive and had lost some control of their hindlimbs”. Besides, in the series on central nervous system [4] (400 mg/kg i.p.), the “reflexes (in words)” value is “All reflexes were still evident and the augmented flexor reflex, as had been noted with APG and CPZ-treated animals, was not present”; the Passivity was found to be 3. Moreover, in the series with central nervous system [4] (500 mg/kg i.p., three mice), the lethality result is on record as “lethal to the three mice tested”. For the same molecule, the sedative side-effects result in the series on central nervous system [4] (setting [9]) was “lower than that of aminoglutethimide”. For the same molecule, the “effect on motor co-ordination (in words)” value in the series with central nervous system [5] (300 mg/kg i.p.) is reported as “little difference from the control”. In addition, the “effect on motor co-ordination (in words)” value with central nervous system [5] (400 mg/kg i.p.) is “the mice became more rigid, and while falling off the faster rod more frequently they tended to slump round the slowly rotating rod, and so stay on for a longer time”. Further, the Falls/2 min with central nervous system [5] (1 r.p.m., 15 min, 300 mg/kg i.p.) is given as 0.6 ± 0.3 Falls/2 min. Further, in the series on central nervous system [5] (1 r.p.m., 15 min, 400 mg/kg i.p.), the Falls/2 min amounted to 0.8 ± 0.4 Falls/2 min. In the series on central nervous system [5] (1 r.p.m., 30 min, 400 mg/kg i.p.), this molecule displayed a Falls/2 min of 0.4 ± 0.2 Falls/2 min. Also, the Falls/2 min in the series with central nervous system [5] (3 r.p.m., 15 min, 300 mg/kg i.p.) is given as 1.5 ± 0.5 Falls/2 min. The molecule further returned a Falls/2 min in the series with central nervous system [5] (3 r.p.m., 15 min, 400 mg/kg i.p.) of 4.8 ± 1.0 Falls/2 min. In the series with central nervous system [5] (3 r.p.m., 30 min, 300 mg/kg i.p.), this molecule had a Falls/2 min of 2.0 ± 0.2 Falls/2 min. Besides, the Falls/2 min with central nervous system [5] (3 r.p.m., 30 min, 400 mg/kg i.p.) came to 3.6 ± 1.3 Falls/2 min. The “time of peak effect after injection” value in the series on central nervous system [5] (i.p.) was determined as 15 min. In addition, in the series with central nervous system [6] (400, 300 and 200 mg/kg i.p., pentylenetetrazol 50 mg/kg), the “prevention of pentylenetetrazol-induced convulsions” value is “None of these doses prevented the pentylenetetrazol-induced convulsions”. The anti-convulsant side-effects result in the series with central nervous system [6] (setting [9]) is “lower than that of aminoglutethimide”.

On aromatase (setting [7]), `CCC1(c2ccnc(C(C)(C)C)c2)CCC(=O)NC1=O` (stereo not drawn) [Example 4] came in with an IC50 of 20 µM. On desmolase, the “IC50 Desmolase” value is “None”.

`CCC1(c2ccccc2)CCC(=O)N(N)C1=O` (stereo not drawn) [N-aminoglutethimide, 1-amino-3-ethyl-3-phenylglutarimide]: at desmolase, the Desmolase inhibition entry was “+ + +”.

As to `C1CCc2nnnn2CC1` [Pentylenetetrazol, pentylenetetrazol, reference compound], the convulsant activity entry in the series with central nervous system [6] (50 mg/kg after NaCl vehicle, within 5 minutes) is “Increased motor activity was followed by tonic convulsions, then severe clonic extensor convulsions which caused death”.

As to `CN(C)CCCN1c2ccccc2Sc2ccc(Cl)cc21` [chlorpromazine], the “unpredictable jumping and darting movements” value with central nervous system [4] (10 mg/kg i.p., particularly on the rotarod) was 5 out of 8.

`CCC1(c2ccccn2)CCC(=O)NC1=O` (stereo not drawn) [drawing 11]: the “IC50 Aromatase” value at aromatase is on record as “None”. Besides, the “IC50 Desmolase” value on desmolase is “None”.

In the case of `CCC1(c2ccccc2)CCC(=O)NC1=O` (stereo not drawn) [glutethimide, 3-ethyl-3-phenylglutarimide], the “sedative, hypnotic or anti-convulsive effect” value in series [1] is “sedative and hypnotic agent”.

As to `CCC1(c2cccc(N)c2)CCC(=O)NC1=O` (stereo not drawn) [m-aminoglutethimide, 3-ethyl-3-(3-aminophenyl)glutarimide], the Aromatase inhibition result at aromatase is listed as “+”. Moreover, on desmolase, the Desmolase inhibition result is given as “+ + +”.
